# Measurements taken from US9187784B2, “EphA4 is a disease modifier in motor neuron disease” (VIB VZW, priority 2011, dated 2015).
# Assays:
# Format in all cases: in vivo
# [1] = test system: zebrafish embryos with knockdown of Smn; experiment: rescue of motor axon phenotype induced by knockdown of Smn (SMA model)
# Procedure: FIG. 14: Inhibiting EphA4 signaling rescues motor axonopathies induced by overexpression of mutant TDP-43 and knockdown of Smn. Y-axes show motor axon length of zebrafish embryos (30 hpf) expressing TDP^WT (black bar) or TDP^A315T (white bar) (Panels A, B) or with unaltered (black bar) or reduced expression levels of Smn (white bar) (Panels C, D). Smn knockdown was established by injection of 3 ng (Panel C) or 6 ng (Panel D) atg-smn morpholino. Ctr-smn morpholino was injected as control. RTK1 signaling was inhibited by injection of 3 ng atg-RTK1 morpholino (shaded bars) (Panels A, C) or by treatment with C1 (500 μM, shaded bars) (Panels B, D). Injection of ctr-RTK1 morpholino and application of a 1/250 dilution of DMSO were used as control. […]
# A morpholino database of translation-blocking morpholinos (atg-mo) was used to perform a morpholino-based knockdown screening in a zebrafish model for ALS.^13 The standard control morpholino (5′-[…]-′3) (SEQ ID NO:4), provided by Gene tools, was used as control. Three nanograms of morpholino were co-injected with 1.43 ng of SOD1 mRNA and the effect of gene knockdown on the mutant SOD1-induced axonopathy analyzed. […]
# [2] = test system: non-transgenic or wild-type SOD1-expressing fish; experiment: axonal and total body length in non-transgenic or wild-type SOD1-expressing fish; details: zebrafish, average ± s.e.m.
# Procedure: Y-axes show motor axon length of non-transgenic (black bar) or SOD1WT-expressing (white bar) zebrafish embryos, injected with either atg-RTK2 (shaded bars, Panel A) or atg-RTK1 morpholino (shaded bars, Panel B). Ctr-RTK2 and ctr-RTK1 were used as controls. Error bars are s.e.m.
# To identify disease-modifying genes in ALS in an unbiased way, knockdown screening was performed in the mutant SOD1 zebrafish model (reference 13), using a library of 303 translation blocking morpholinos (atg-mo), of which 58 were targeting genes presumed to be neuronally expressed (according to the NCBI database) and 245 randomly chosen targeting genes. […] The morpholino yielding the highest rescue in two separate experiments was studied further. It targets zebrafish receptor tyrosine kinase 2 (RTK2, also known as epha4b), which has 67% identity and 80% homology to the human orthologue EPHA4. Knockdown of RTK2 in fish expressing mutant SOD1 completely and dose-dependently rescued the motor axonopathy (both axonal length and aberrant branching) caused by three different SOD1 mutations: A4V, G93A and G37R (FIG. 1, Panels A-F; Table 2). […] Receptor tyrosine kinase 1 (RTK1, also known as epha4a), the fish paralogue of RTK2, has 83% identity and 92% homology to human EPHA4. RTK1 knockdown was dose-dependently and equally protective as RTK2 knockdown (FIG. 1, Panel G; Table 4). […]
# [3] = test system: zebrafish embryos; experiment: Toxicity analysis of Compound 1 in zebrafish embryos (total body shape); details: for death: read at 30 hpf; for malformed / normal: zebrafish, in vivo, 24 h
# Procedure: Different concentrations of C1 were dissolved in the water of 6 hpf-old zebrafish embryos. At 30 hpf, toxicity (%) of C1 was investigated by analyzing total body shape of the embryos.
# A morpholino database of translation-blocking morpholinos (atg-mo) was used to perform a morpholino-based knockdown screening in a zebrafish model for ALS.^13 The standard control morpholino (5′-[…]-′3) (SEQ ID NO:4), provided by Gene tools, was used as control. Three nanograms of morpholino were co-injected with […] of SOD1 mRNA and the effect of gene knockdown on the mutant SOD1-induced axonopathy analyzed. Each morpholino was tested in two separate experiments. Only morphologically normal embryos were included for further analysis. Overexpression of SOD1 or TDP-43, applied to validate the protective morpholino, was established by injection of 1.76 ng SOD1 mRNA or 1.43 ng TDP-43 mRNA, respectively. Antisense morpholinos to knockdown zebrafish RTK1, RTK2, Smn and their five base pair-mismatch control morpholinos were developed by Gene tools: atg-RTK1 (5′-[…]-′3) (SEQ ID NO:5), atg-RTK2 (5′-[…]-[…]-′3) (SEQ ID NO:6), splice-RTK2 (5′-[…]-[…]-′3) (SEQ ID NO:7) and atg-smn (5′-[…]-3′) (SEQ ID NO:8). Compound 1 (2,5-dimethylpyrrolyl benzoic acid, Matrix Scientific) dissolved in DMSO was added to the water of 6-hpf-old zebrafish embryos.
Compound,effect on motor axon phenotype induced by knockdown of Smn [1],body length [2] [mm],death ([3]; C1 250 μM in water from 6 hpf) [%],death ([3]; C1 500 μM in water from 6 hpf) [%],death ([3]; C1 750 μM in water from 6 hpf) [%],death ([3]; C1 1000 μM in water from 6 hpf) [%],malformed ([3]; 250 μM) [%],normal ([3]; 250 μM) [%],malformed ([3]; 500 μM) [%],normal ([3]; 500 μM) [%],malformed ([3]; 750 μM) [%],normal ([3]; 750 μM) [%],malformed ([3]; 1000 μM) [%],normal ([3]; 1000 μM) [%]
5′-CTGTGAACACAAGCGCAGCCATTGG-′3 (all phosphorodiamidate morpholino (PMO)) [atg-RTK1],rescued the motor axon phenotype induced by knockdown of Smn,2.61±0.01,–,–,–,–,–,–,–,–,–,–,–,–
Cc1ccc(C)n1-c1ccc(C(=O)O)c(O)c1 [Compound C1],–,–,6.12,2.80,11.2,20,5.10,88.77,3.74,93.45,12.93,75.86,80,0
